In patent publication US11685766B2, “14-3-3 targeting peptides for cancer treatment” (Creighton University, priority 2019, dated 2023) one finds IC50, SCC cells alive and Kd data, which are given here for three compounds.

Several values for one entry are separate records, joined by “and”; a condition that tells them apart may be missing. Identical values can stand only once. Like-named read-outs stand apart in the source and are kept apart here. Peptide text beside a SMILES is read from it.

For one experiment, the system named is SCC12B.2 cells. The class given is cell-based, human. How it is done:
Human skin cancer cell lines (SCC12B.2, SCC13, SRB12) were maintained in Dulbecco's modified Eagle's medium (DMEM) (Invitrogen, Carlsbad, Calif., USA) supplemented with 1% penicillin (10 000 U/ml)-streptomycin (10 000 μg/ml) (PenStrep) (Invitrogen) and 10% fetal bovine serum (Gemini Bio-Products, Sacramento, Calif., USA) at 37° C. and 5% CO2. Normal human epidermal keratinocytes (nHEK) (Thermo Scientific, Waltham, Mass., USA) isolated from neonatal foreskin were cultured in EpiLife medium (Invitrogen) supplemented with human keratinocyte growth supplement (Invitrogen) and 1% PenStrep (Invitrogen). Cells were transfected with control pcDNA or pcDNA3.1-HA-14-3-3ε (Addgene plasmid #48797; http://n2t.net/addgene:48797; RRID:Addgene_48797) using Lipofectamine/Plus reagents (Life Technologies, Carlsbad, Calif., USA) or with siRNA targeting 14-3-3ε (Dharmacon, Lafayette, Colo., USA), 14-3-3γ (Dharmacon), 14-3-3ζ, (Dharmacon), Survivin (Cell Signaling, Danvers, Mass., USA), Akt (Dharmacon) or control siRNA (Santa Cruz Biotechnology, Dallas, Tex., USA) using siQuest transfection reagents (Mirus Bio, Madison, Wis., USA) or treated with Akt inhibitor GSK690693 (Tocris Bioscience, Bristol, United Kingdom) or cell cycle inhibitor 5-Fluorouracil (5-FU) (Thermo Fisher) resuspended in DMSO.
To determine the half maximal inhibitory concentration (IC50) for ES1P2 in SCC12B.2 and nHEK cells, cells were plated in a 96-well plate at a density of 6×10^3 cells/well. Twenty-four hours after plating, cells were treated with increasing concentrations of ES1P2 (0-75 μM) in Opti MEM medium supplemented with reduced serum (Invitrogen) for 4 consecutive days. ES1P2 peptide was resuspended fresh, daily in 25 mM Tris buffer (pH 7.5). Neutral Red Cell Viability assays were performed, where absorbance was measured using a Cytation 5 multi-mode plate reader (BioTek). The experiment was repeated three separate times with 4 replicate wells per experiment to obtain an average IC50 value.
Carcinoma human cell lines (SCC12B.2 and SCC13) were maintained in Dulbecco's modified Eagle's medium (DMEM) (Invitrogen, Carlsbad, Calif., USA) supplemented with 1% penicillin (10 000 U/ml)-streptomycin (10 000 μg/ml) (PenStrep) (Invitrogen) and 10% fetal bovine serum (Gemini Bio-Products, Sacramento, Calif., USA) at 37° C. and 5% CO2. Primary normal human epidermal keratinocytes (nHEK) (Thermo Fisher Scientific, Waltham, Mass., USA) isolated from neonatal foreskin were maintained in EpiLife medium (Invitrogen) supplemented with human keratinocyte growth supplement (HKGS) and 1% PenStrep. nHEK cells were not passaged more than twice before experiments. Cells were treated with CDC25A inhibitor NSC663284 (Tocris Bioscience, Bristol, United Kingdom) suspended in DMSO, transfected with wild type CDC25A or control plasmid using Lipofectamine/Plus transfection reagents (Life Technologies, Carlsbad, Calif., USA) or transfected with siRNA targeting 14-3-3 ε or control siRNA (Santa Cruz Biotechnology, Dallas, Tex., USA) using siQuest transfection reagents (Mirus Bio, Madison, Wis., USA).
To determine the half maximal inhibitory concentration (IC50) for pS and pT in SCC12B.2 cells, cells were plated in a 96-well plate at a density of 6×10^3 cells/well. […] Neutral Red Cell Viability assays were performed, where absorbance was measured using a Cytation 5 multi-mode plate reader (BioTek). […]

The next experiment concerns the target T1, 14-3-3ε protein (Homo sapiens, UniProt P62258).
T1 sequence (P62258 1-255): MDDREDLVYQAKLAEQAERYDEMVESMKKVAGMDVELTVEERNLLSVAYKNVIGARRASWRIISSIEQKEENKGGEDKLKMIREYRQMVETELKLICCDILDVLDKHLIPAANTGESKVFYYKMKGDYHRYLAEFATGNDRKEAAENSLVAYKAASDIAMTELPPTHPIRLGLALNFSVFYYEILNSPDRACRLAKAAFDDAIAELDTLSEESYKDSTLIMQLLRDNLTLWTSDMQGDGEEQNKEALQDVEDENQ
The experiment can be described thus: Differential scanning fluorimetry (DSF) binding. Particulars: 7 μM 14-3-3ε, ΔTm vs peptide concentration, Hill fit; read-out: Kd, binding affinity to 14-3-3ε protein (DSF). Here is the method:
Differential scanning fluorimetry (DSF) experiments were performed using BioRad CFX384 Real-Time qPCR attached with C1000 Touch Thermo Cycler in the FRET channel. 7 μM subunits of 14-3-3ε protein, ten molar excess of Sypro Orange and 20 mM Tris-HCl, pH 7.4 assay buffer were used in all the melting experiments. Stock solution of peptides were prepared by dissolving 1 mg of lyophilized peptides in 20 mM Tris, pH 7.4 buffer and 0.1 μM to 200 μM dilution series were prepared. Protein melting experiments were performed both in the absence and the presence of increasing concentration of peptides. 15 μL of each samples (in triplicate) were put into each well of a 384-well white PCR plate and sealed with optical adhesive sealer (BioRad MSB-1001) and any air-bubble in the solutions were removed by spinning the plate vertically with PCR plate spinner (Labnet MPS 1000) at 1000 RPM for 3 minutes. The temperature was increased from 25° C. to 95° C. at a rate of 0.7° C. per minute. Melting temperatures of each well were determined using the CFX Maestro software version 2.0 by plotting the first derivative of fluorescence signal against temperature. All the measurements were performed in triplicate and the deviations of melting temperatures (ΔTm) presented for each samples were calculated relatively to three control samples (7 μM 14-3-3ε in the absence of the peptide). Binding constant (Kd) for each peptide was calculated by plotting ΔTm against peptide concentration and data points were fitted with Hill's equation using GraphPad 9.0 software.
A general note: DSF heats the sample and reads unfolding from a dye or from intrinsic fluorescence.

As to `NCCCC[C@H](NC(=O)[C@H](Cc1c[nH]c2ccccc12)NC(=O)[C@H](Cc1ccc(O)cc1)NC(=O)[C@@H](N)Cc1c[nH]c2ccccc12)C(N)=O` [ES1P2, Trp-Tyr-Trp-Lys-NH2] (H-WYWK-NH2), the IC50 (as a rule, the point on the concentration scale where inhibition reaches its midpoint) in the experiment on SCC12B.2 cells was found to be 20.6 µM. In the experiment on SCC12B.2 cells (20 μM, alone, FIG. 1D), this compound had an SCC cells alive of 62 % alive.
Take `CSCC[C@H](NC(=O)[C@H](CCCNC(=N)N)NC(=O)[C@@H]1CCCN1C(=O)[C@H](C)NC(=O)[C@H](COP(=O)(O)O)NC(=O)[C@H](CC(N)=O)NC(=O)[C@H](CCC(N)=O)NC(=O)[C@H](CCCNC(=N)N)NC(=O)[C@H](CCC(N)=O)NC(=O)[C@@H](NC(C)=O)[C@@H](C)O)C(=O)N[C@@H](CC(C)C)C(=O)N[C@@H](CO)C(=O)N[C@@H](CO)C(=O)N[C@@H](CC(N)=O)C(N)=O` [pS, Ac-Thr-Gln-Arg-Gln-Asn-Ser-(PO3^2−)-Ala-Pro-Arg-Met-Leu-Ser-Ser-Asn-NH2] (HELM PEPTIDE1{[ac].T.Q.R.Q.N.[O=C([C@H](COP(=O)(O)O)N[*:1])[*:2]].A.P.R.M.L.S.S.N.[am]}$$$$V2.0): in the experiment with SCC12B.2 cells, the IC50 was 29 µM. The Kd (in general, the free concentration of one partner at which half of the binding sites on the other are occupied at equilibrium, for simple one-to-one binding) on 14-3-3ε protein stood at 11.2 µM.
Regarding `CC(=O)N[C@@H](CCCNC(=N)N)C(=O)N[C@H](C(=O)N[C@@H](CCCCN)C(=O)N[C@@H](CO)C(=O)N[C@@H](CCCNC(=N)N)C(=O)N[C@H](C(=O)N[C@@H](Cc1c[nH]c2ccccc12)C(=O)N[C@@H](C)C(=O)NCC(=O)N[C@@H](CCC(=O)O)C(=O)N[C@@H](CCCCN)C(=O)N[C@@H](CO)C(=O)N[C@@H](CCCCN)C(=O)N[C@@H](CCCNC(=N)N)C(N)=O)[C@@H](C)OP(=O)(O)O)[C@@H](C)O` [pT, Ac-Arg-Thr-Lys-Ser-Arg-Thr(PO3^2−)-Trp-Ala-Gly-Glu-Lys-Ser-Lys-Arg-NH2] (HELM PEPTIDE1{[ac].R.T.K.S.R.[C[C@@H](OP(=O)(O)O)[C@H](N[*:1])C(=O)[*:2]].W.A.G.E.K.S.K.R.[am]}$$$$V2.0), in the experiment on SCC12B.2 cells (SCC12B.2 cells, Neutral Red, treated 4 consecutive days, 0-75 μM, read-out: IC50 in SCC cells (cell viability dose response)), the IC50 is 22.1 µM and 22.6 µM. For the same compound, on 14-3-3ε protein, the Kd was 3.64 µM.
